How the values were obtained:
Test in all cases: MTT cell death assay, chemotherapeutic with and without MADD siRNA knockdown
Assay type in all cases: cell-based
[1] = tested on: OVCAR3 ovarian cancer cells; conditions: siRNA 10 nM
Protocol: (§1) Cells are cultured and maintained at 37° C. in a humidified atmosphere containing 5% CO2 as described above. On Day 0, Cells are seeded in […] tissue culture dishes (Corning; Cat Number: 353003) to attain 60-70% confluence. In parallel, cells are also seeded in one 96-well plate (Corning; Cat number: 353072) for analysis of survival before reseeding. After 12-18 hours (Day 1), cells are transfected with Scramble or MADD siRNA at 10 nM concentration. The sequences of siRNAs (double-stranded) used are:
(§2) On Day 4, when cells are properly adhered and retained their shape in 96-well plates, drugs are added. All drugs are diluted in complete media on the same day prior to the addition to the cells. In untreated cells, media is replaced with complete media. Two hundred μl volume of media (with or without drugs) is used for the drug treatment assay. Plates are incubated 24 hours, 48 hours and 72 hours at 37° C. in humidified CO2 incubator.
(§3) An MTT assay is performed to determine relative survival after drug treatment as described above. MTT (3-[4,5-Dimethylthiazol-2-yl]-2,5-diphenyltetrazolium bromide; Thiazolyl blue) is purchased from Sigma Aldrich (Cat number: M5655). MTT is dissolved in sterile DPBS at the concentration of 5 mg/ml and filtered through 0.45 μM syringe filter (Corning; Cat number: 431220). Ten μl of MTT solution is added per well of 96-well plate. Plates are incubated for 2 hours at 37° C. in the humidified CO2 incubator. After 2 hours, media is aspirated using vacuum inside the biosafety hood. Purple colored crystals formed in viable cells are dissolved by adding 100 μl of Dimethyl sulfoxide (Thermo Fisher Scientific; Cat number D128-500) Plates are kept on shaker for 10 minutes for compete dissolution of crystals and absorbance is recorded at 595 nm using Bio-Rad iMark microplate reader. Data is analyzed in MICROSOFT EXCEL® software. Relative survival is calculated with respect to absorbance of control (untreated cells) to determine the effect of transfection as well as combination treatment.
(§4) Each data set takes into account any spontaneous cell death which is observed upon transfection with Scramble siRNA; the amount of spontaneous cell death from Scramble siRNA transfection (baseline) is subtracted from the amount of cell death observed in each siRNA transfection reaction to yield a Net Percent (Net %) cell death after accounting for Scrambled siRNA-induced cell death.
(§5) Cells are cultured and maintained at 37° C. in a humidified atmosphere containing 5% CO2 as described above. On Day 0, Cells are seeded in […] tissue culture dishes (Corning; Cat Number: 353003) to attain 60-70% confluence. In parallel, cells are also seeded in one 96-well plate (Corning; Cat number: 353072) for analysis of survival before reseeding. After 12-18 hours (Day 1), cells are transfected with Scramble or MADD siRNA at 10 nM concentration. The sequences of siRNAs (double stranded) used are:
as §3, with “D128-500).” for “D128-500)”, “Relative survival is calculated with respect to absorbance of control (untreated cells) to determine the effect of transfection as well as combination treatment.” left out

[2] = tested on: H522 lung cancer cells; conditions: Gemcitabine 8.2 nM, siRNA 10 nM, 48 hours post Gemcitabine treatment
Protocol: as §1, §2, §3, §4, §5
as §3, with “D128-500).” for “D128-500)”, “Relative survival is calculated with respect to absorbance of control (untreated cells) to determine the effect of transfection as well as combination treatment.” left out

[3] = tested on: AGS gastric adenocarcinoma cells; conditions: siRNA 10 nM
Protocol: (§6) Cells are cultured and maintained at 37° C. in a humidified atmosphere containing 5% CO2 as described above. […] After 12-18 hours (Day 1), cells are transfected with Scramble or MADD siRNA at 10 nM concentration. The sequences of siRNAs (double-stranded) used are:
as §2
as §3, with “MTT is dissolved in sterile DPBS at the concentration of 5 mg/ml and filtered through 0.45 μM syringe filter (Corning; Cat number: 431220).” left out
as §4
(§7) Cells are cultured and maintained at 37° C. in a humidified atmosphere containing 5% CO2 as described above. […] After 12-18 hours (Day 1), cells are transfected with Scramble or MADD siRNA at 10 nM concentration. The sequences of siRNAs (double stranded) used are:
as §3, with “MTT is dissolved in sterile DPBS at the concentration of 5 mg/ml and filtered through 0.45 μM syringe filter (Corning; Cat number: 431220).” left out, “D128-500).” for “D128-500)”
(§8) On Day 4, when cells are properly adhered and retained their shape in 96-well plates, drugs are added. All drugs are diluted in complete media on the same day prior to the addition to the cells. In untreated cells, media is replaced with complete media. Two hundred μl volume of media (with or without drugs) is used for the drug treatment assay. Plates are incubated 24 h, 48 h and 72 hours at 37° C. in humidified CO2 incubator.

[4] = tested on: PLC/PRF/5 hepatic cancer cells; conditions: siRNA 10 nM
Protocol: as §6, §2
as §3, with “MTT is dissolved in sterile DPBS at the concentration of 5 mg/ml and filtered through 0.45 μM syringe filter (Corning; Cat number: 431220).” left out
as §4, §7
as §3, with “MTT is dissolved in sterile DPBS at the concentration of 5 mg/ml and filtered through 0.45 μM syringe filter (Corning; Cat number: 431220).” left out, “D128-500).” for “D128-500)”
as §8

[5] = tested on: H2227 lung cancer cells; conditions: siRNA 10 nM
Protocol: as §1, §2, §3, §4, §5
(§9) On Day 4, when cells are properly adhered and retained their shape in 96-well plates, drugs are added. Doxorubicin was added at a working concentration of 5.0 nM, 9.375 nM, 0.075 μM, 0.25 μM, 0.5 μM, and 0.8 μM. All drugs are diluted in complete media on the same day prior to the addition to the cells. In untreated cells, media is replaced with complete media. Two hundred μl volume of media (with or without drugs) is used for the drug treatment assay. Plates are incubated 24 hours, 48 hours and 72 hours at 37° C. in humidified CO2 incubator.
(§10) An MTT assay is performed to determine relative survival after drug treatment as described above. MTT (3-[4,5-Dimethylthiazol-2-yl]-2,5-diphenyltetrazolium bromide; Thiazolyl blue) is purchased from Sigma Aldrich (Cat number: M5655). MTT is dissolved in sterile DPBS at the concentration of 5 mg/ml and filtered through […] syringe filter (Corning; Cat number: 431220). Ten μl of MTT solution is added per well of 96-well plate. Plates are incubated for 2 hours at 37° C. in the humidified CO2 incubator. […]

[6] = tested on: 8505C thyroid cancer cells; conditions: 8505C; Cisplatin 2.5 μM; siRNA 10 nM; 48 hours post Cisplatin treatment
Protocol: as §7, §8
as §3, with “MTT is dissolved in sterile DPBS at the concentration of 5 mg/ml and filtered through 0.45 μM syringe filter (Corning; Cat number: 431220).” left out
as §4, §2

[7] = tested on: HTH7 thyroid cancer cells; conditions: siRNA 10 nM
Protocol: as §7, §2
as §3, with “MTT is dissolved in sterile DPBS at the concentration of 5 mg/ml and filtered through 0.45 μM syringe filter (Corning; Cat number: 431220).” left out
as §4

[8] = tested on: N87 gastric carcinoma cells; conditions: Doxorubicin 0.8 μM, siRNA 10 nM, 72 hours post Doxorubicin treatment
Protocol: as §5, §9
as §3, with “D128-500).” for “D128-500)”
as §4

[9] = tested on: JIMT1 breast cancer cells; conditions: Doxorubicin 0.075 μM, siRNA 10 nM, 24 hours post Doxorubicin treatment
Protocol: as §5, §9
as §3, with “D128-500).” for “D128-500)”
as §4

[10] = tested on: K562 chronic myelogenous leukemia cells; conditions: siRNA 10 nM
Protocol: as §1, §2, §3, §4, §5, §9, §10

[11] = tested on: SU.86.86 pancreatic cancer cells; conditions: Doxorubicin 5 nM, siRNA 10 nM, 24 hours post Doxorubicin treatment
Protocol: as §1, §2, §3, §4, §5, §9, §10

[12] = Gemcitabine 0.1 μM, 48 hours post Gemcitabine treatment
[13] = Gemcitabine 1 μM, 48 hours post Gemcitabine treatment
[14] = Gemcitabine 0.03125 μM, 24 hours post Gemcitabine treatment
[15] = Gemcitabine 25 nM, 48 hours post Gemcitabine treatment
[16] = Cisplatin 1.25 μM, 72 hours post Cisplatin treatment
[17] = Cisplatin 5 μM, 24 hours post Cisplatin treatment
[18] = Cisplatin 1.875 μM, 24 hours post Cisplatin treatment
[19] = 5-flurouracil 25 μM, 72 hours post 5-flurouracil treatment
[20] = Doxorubicin 9.375 nM, 48 hours post Doxorubicin treatment
[21] = Doxorubicin 0.25 μM, 72 hours post Doxorubicin treatment
[22] = Doxorubicin 0.5 μM, 48 hours post Doxorubicin treatment

Structure (SMILES): Nc1ccn([C@@H]2O[C@H](CO)[C@@H](O)C2(F)F)c(=O)n1 [Gemcitabine]
- Observed % Cell death ([1]; Gemcitabine 0.0125 μM, 72 hours post Gemcitabine treatment): 19%
- Net % cell death after accounting for Scrambled siRNA [1, 12]: 28%
- Observed % Cell death [1, 12]: 28%
- Net % cell death after accounting for Scrambled siRNA [2]: 4%
- Observed % Cell death [2]: 4%
- Net % cell death after accounting for Scrambled siRNA [3, 13]: 38%
- Observed % Cell death [3, 13]: 38%
- Net % cell death after accounting for Scrambled siRNA [4, 14]: 1%
- Observed % Cell death [4, 14]: 1%
- Net % cell death after accounting for Scrambled siRNA [5, 15]: 15%
- Observed % Cell death [5, 15]: 15%

Structure (SMILES): N.N.[Cl][Pt][Cl] [Cisplatin]
- Net % cell death after accounting for Scrambled siRNA [6]: 19%
- Observed % Cell death [6]: 19%
- Net % cell death after accounting for Scrambled siRNA [7, 16]: 0%
- Observed % Cell death [7, 16]: 0%
- Net % cell death after accounting for Scrambled siRNA [7, 17]: 13%
- Observed % Cell death [7, 17]: 13%
- Net % cell death after accounting for Scrambled siRNA [4, 18]: 41%
- Observed % Cell death [4, 18]: 41%

Structure (SMILES): O=c1[nH]cc(F)c(=O)[nH]1 [5-flurouracil]
- Net % cell death after accounting for Scrambled siRNA [3, 19]: 22%
- Observed % Cell death [3, 19]: 22%

Structure (SMILES): COc1cccc2c1C(=O)c1c(O)c3c(c(O)c1C2=O)C[C@@](O)(C(=O)CO)C[C@@H]3O[C@H]1C[C@H](N)[C@H](O)[C@H](C)O1 [Doxorubicin]
- Net % cell death after accounting for Scrambled siRNA [8]: 38%
- Observed % Cell death [8]: 38%
- Net % cell death after accounting for Scrambled siRNA [9]: 17%
- Observed % Cell death [9]: 17%
- Net % cell death after accounting for Scrambled siRNA [5, 20]: 3%
- Observed % Cell death [5, 20]: 3%
- Net % cell death after accounting for Scrambled siRNA [10, 21]: 11%
- Observed % Cell death [10, 21]: 11%
- Net % cell death after accounting for Scrambled siRNA [10, 22]: 0%
- Observed % Cell death [10, 22]: 0%
- Net % cell death after accounting for Scrambled siRNA [11]: 36%
- Observed % Cell death [11]: 36%
